Results reported in US7345091B2, “Carotenoid ether analogs or derivatives for the inhibition and amelioration of disease” (Cardax Pharmaceuticals, Inc., priority 2002, dated 2008).

Key:
[1] = human, in vivo, po, 1.1 mg/kg; cited from earlier work
[2] = system: C3H10T1/2 cell culture model; assay: Inhibition of MCA-induced neoplastic transformation; assay type: cell-based, mouse; settings: for percent reduction of MCA-induced neoplastic transformation: 3×10^-6 M in THF
Experimental: Non-esterified, free astaxanthin 2E is generated in the mammalian gut after oral administration of esterified astaxanthin. Only free astaxanthin is found in mammalian plasma and solid organs. […] Inherent esterase activity of serum albumin, and the action of promiscuous esterases in serum and solid organs rapidly generates non-esterified, free astaxanthin after parenteral administration of the disodium disuccinate astaxanthin derivative (XVI). […] An experiment was performed to assess the ability of non-esterified, free astaxanthin (the in vivo final cleavage product of the disodium salt disuccinate astaxanthin derivative (XVI), tested as the all-trans mixture of stereoisomers 3S,3′S, meso, and 3R,3′R in a 1:2:1 ratio) to inhibit neoplastic transformation in the C3H10T1/2 cell culture model developed in the lab of the late Charles Heidelberger (Reznikoff, 1973).
This experiment was conducted according to protocols established previously (Bertram, 1991 and Pung, 1988). In brief, the 10T1/2 cells, derived from mouse embryonic fibroblasts, were seeded at a density of 10^3 cells/60 mm dish in Eagle's Basal Media (BME) (Atlanta Biologicals, Atlanta, Ga.), supplemented with 4% fetal calf serum (Atlanta Biologicals, Atlanta, Ga.) and 25 μg/mL gentamicin sulfate (Sigma, St. Louis, Mo.). Cells were treated 24 hours later with 5.0 μg/ml MCA (Sigma, St. Louis, Mo.) in acetone or with 0.5% acetone (final concentration) as a control. Media was changed 24 hours after MCA treatment. Cells were treated with astaxanthin in THF or with retinol acetate in acetone 7 days later, and re-treated every 7 days for 4 weeks. Other dishes were treated with the appropriate solvent controls. After 5 weeks from the start of the experiment, cells were fixed with methanol and stained with 10% Giemsa stain (Sigma, St. Louis, Mo.) and scored for type II and type III foci as per Reznikoff (1973).

[3] = read-out: antioxidant ED50 (protective level); cited from earlier work
[4] = Text: FIG. 27 and FIG. 28 depict the results of spectral analysis after flash photolysis of the formation of triplet and carotenoid cation radical states for non-esterified, free astaxanthin 2E and the diacid disuccinate astaxanthin derivative XV were obtained. Formation of the carotenoid cation radical is a measure of the potential biophysical behavior of the novel derivative as an antioxidant. If a derivative retains the antioxidant behavior of non-esterified, free astaxanthin, then all previously documented (i.e. literature precedent) therapeutic applications for astaxanthin can be reasonably assumed for the novel derivative, including at least singlet oxygen quenching, lipid peroxidation chain-breaking, and/or direct radical scavenging.
In this experiment, nitronaftalin (NN) was used as the photosensitizer. After irradiation, the excited sensitizer (NN*) forms a sensitizer triplet (^3NN). When ^3NN encounters a carotenoid, energy and electron transfer reactions with ^3NN take place. The resulting relatively stable ^3car and carotenoid cation radicals (car*^+) are detected by characteristic absorption bands. Non-polar solvents (e.g. hexane) favor the formation of ^3car, and more polar solvents (alcohols, water) favor the formation of the car.^+. The anion radical of the sensitizer (NN.^−) is not typically seen because of a low absorption coefficient.
The ^3car decays rather quickly. After 15 μs, half of the ^3car has disappeared, and after 50 μs, no ^3car is left.
The spectrum of asta 2E is nearly identical to that of astaCOOH XV. After 50 μs, the ^3car has disappeared. During this time frame, the car.^+ is stable. Negative and positive peaks in the absorption spectra for astaCOOH XV and asta 2E are superimposable.

[5] = system: superoxide anion; assay: Superoxide anion scavenging by EPR (DEPMPO spin trap) in phorbol ester-stimulated isolated neutrophils; assay type: cell-based, human; settings: Homo sapiens, Neutrophil, Solvent DMSO, 0.1 mM; read-out: Mean (% inhibition) of superoxide anion signal
Experimental: In an experiment, neutrophils were isolated on a Percoll gradient from whole blood from a human volunteer. The isolated neutrophils were then re-suspended in phosphate-buffered saline, and maximally stimulated with phorbol ester to induce the respiratory burst and production of superoxide anion. To the solution of activated human neutrophils, the disodium salt disuccinate astaxanthin derivative XVI was added at various concentrations, and the superoxide signal [as measured with electron paramagnetic resonance (EPR) spectroscopy] was subsequently measured. […] The disodium salt disuccinate astaxanthin derivative XVI tested at 100 μM scavenged 28% of the total signal. At 3 mM, almost no superoxide signal remained. […] In addition to reducing the superoxide anion signal important in ischemia-reperfusion injury, it is also likely that myocardial salvage can be achieved with the described carotenoid derivative, as superoxide anion plays a major role in tissue injury and death during prolonged myocardial ischemia. In a third experiment, neutrophils were again isolated on a Percoll gradient from whole blood from a second human volunteer. The isolated neutrophils were then re-suspended in phosphate-buffered saline, and maximally stimulated with phorbol ester to induce the respiratory burst and production of superoxide anion. […] Astaxanthin 2E was dissolved in HPLC grade dimethylsulfoxide (DMSO; Sigma-Aldrich, St. Louis, Mo.). The disodium disuccinate derivatives XVI of astaxanthin 2E were tested separately in […] formulations: statistical mixture of stereoisomers (as for astaxanthin, above, a 1:2:1 mixture of all-E; labeled as “mixture” in all tables and figures); 3S,3'S, and 3R,3'R (optical isomers or enantiomers); and meso (mixture of identical 3S,3'R and 3'S,3R; diastereomers of the enantiomeric pair). […] The disuccinate derivatives were first tested at the appropriate final concentrations in pure aqueous solution (deionized water) from stock solutions of 10 mM. Each of the four disuccinate derivatives were then tested from stock solutions prepared in a 1:2 mixture of ethanol (final concentration of EtOH in stock solution 331⁄3%; final concentration in isolated neutrophil assay 0.3%; HPLC grade ethanol, Sigma-Aldrich, St. Louis, Mo.) at 10 mM. […] Metaphore® Pharmaceuticals, Inc., St. Louis, Mo.) were also performed. Human polymorphonuclear leukocytes (PMNs) were isolated from freshly sampled venous blood of a single volunteer by Percoll density gradient centrifugation, which yielded PMNs with a purity of >95%. Each 10 mL of whole blood was mixed with 0.8 mL of 0.1 M EDTA and 25 mL of saline. The diluted blood was layered over 9 mL of Percoll at a specific density of 1.080 g/mL. After centrifugation at 400×g for 20 min at 20° C., the plasma, mononuclear cell, and Percoll layers were removed. Erythrocytes were lysed by addition of 18 mL of ice-cold water for 30 s, followed by 2 mL of 10× PIPES buffer (25 mM PIPES, 110 mM NaCl, and 5 mM KCl, titrated to pH 7.4 with NaOH). Cells were pelleted at 4° C., the supernatant was decanted, and the procedure was repeated. After the second hypotonic lysis, cells were washed twice with PAG buffer (PIPES buffer containing 0.003% human serum albumin and 0.1% glucose). Afterward, PMNs were counted by light microscopy on a hemocytometer. The final pellet was then suspended in PAG-CM buffer (PAG buffer with 1 mM CaCl2 and 1 mM MgCl2). All EPR measurements were performed using a Bruker ER 300 EPR spectrometer operating at X-band with a TM110 cavity. The microwave frequency was measured with a Model 575 microwave counter (EIP Microwave, Inc., San Jose, Calif.). To measure O^ -2 generation from phorbol-ester (PMA)-stimulated PMNs, EPR spin-trapping studies were performed using DEPMPO (Oxis, Portland, Oreg.) at 10 mM. 1×10^6 PMNs were stimulated with PMA (1 ng/mL) and loaded into capillary tubes for EPR measurements. […]

[6] = system: C3H/10T1/2 cells; assay: Assembly of Cx43 into plaques (immunofluorescent staining); assay type: cell-based, mouse; settings: 1×10^-8 M in tetrahydrofuran, 4 days
Experimental: In this experiment expression and assembly of Cx43 into plaques was assessed by immunofluorescent staining. Procedures were essentially as described in Zhang (1992). Briefly, confluent cultures of C3H/10T1/2 cells were grown on Permanox plastic 4-chamber slides (Nalge Nunc International, Naperville, Ill.) and treated for 4 days with: (1) the disodium salt disuccinate astaxanthin derivative XVI (statistical mixture of stereoisomers) dissolved in a 1:2 EtOH/H2O formulation; (2) the retinoid TTNPB at 1×10^−8 M in tetrahydrofuran as a positive control; or (3) 1:2 EtOH/H2O as a solvent control. Cells were fixed with −20° C. methanol overnight, washed in buffer, blocked in 1% bovine serum albumin (Sigma, St, Louis, Mo.) in PBS, and incubated with the rabbit polyclonal anti-Cx43 antibody (Zymed, San Francisco, Calif.) as in (2) above and detected with Alexa568 conjugated anti-rabbit secondary (Molecular Probes, Eugene, Oreg.). Slides were illuminated with […] light and images were acquired at a wavelength of 600 nm using the Zeiss Axioscope light microscope and a Roper Scientific cooled CCD camera. […] In cultures treated with solvent as control, such immunoreactive plaques were infrequent and were smaller than those detected in cells treated with the statistical mixture of stereoisomers of the disodium salt disuccinate astaxanthin derivative XVI or with TTNPB as positive control. […]

[7] = system: connexin 43 protein expression; assay: Induction of connexin 43 protein expression (Western blot, 96 hours); assay type: cell-based, mouse; settings: 10^-8 M, 96-hour time point
Experimental: In brief, mouse embryonic fibroblast CH3/10T^1/2 cells were treated with the following formulations in a 4 mL cell culture system with media containing 2% calf serum: • 1. TTNPB [p-(E)-2-(5,6,7,8-tetrahydro-5,5,8,8-tetramethyl-2-napthyl) propenyl benzoic acid] 10^−8 M in acetone [positive control for connexin 43 upregulation (4 μL in 4 mL] • 2. Disodium salt disuccinate astaxanthin derivative XVI/H2O at 10^−5 M (40 μl in 4 mL) • 3. Disodium salt disuccinate astaxanthin derivative XVI/H2O at 10^−6 M (4 μl in 4 mL) • 4. Disodium salt disuccinate astaxanthin derivative XVI/H2O at 10^−7 M (1:10 dilution and 4 μl in 4 mL) • 5. Disodium salt disuccinate astaxanthin derivative XVI H2O/ethanol [EtOH] formulation at 10^-5 M (40 μl in 4 mL) • 6. Disodium salt disuccinate astaxanthin derivative XVI H2O/EtOH formulation at 10^−6 M (4 μl in 4 mL) • 7. Sterile H2O control (40 μl in 4 mL) • 8. Sterile H2O/EtOH control (20 μL EtOH, 20 μL H2O in 4 mL) • 9. Media control (4 mL)
Cells were harvested after 96 hours incubation with test compounds and control solutions. All media solutions were identical in color, however after treatment with the disodium salt disuccinate astaxanthin derivative XVI at both 10^−5 dilutions, the color subjectively changed to an orange-red color. Cells treated with TTNPB appeared striated with light microscopy, evidence of differentiation to myocytes, an expected result in this cell culture system. After harvest and pelleting of cells, tubes containing both 10^−5 disodium salt disuccinate astaxanthin derivative XVI solutions were bright red; both 10^−6 dilution tubes were a pink color. As documented previously for other colored carotenoids, this was subjective evidence for cellular uptake of the test compounds.
Cells were then lysed, and 50 μg of each protein was electrophoresed on a 10% polyacrylamide gel. The gel was then transferred to a nitrocellulose filter. Total protein was assayed with Coomassie blue staining (FIG. 29; lanes 6, 7, and 9 were smeared secondary to gel transfer, and were not included in the quantitative comparison [FIG. 31)]. […]

CC1=C(/C=C/C(C)=C/C=C/C(C)=C/C=C/C=C(C)/C=C/C=C(C)/C=C/C2=C(C)C(=O)C(O)CC2(C)C)C(C)(C)CC(O)C1=O (centres unmarked) [Astaxanthin 2E, Astaxanthin]
Cmax, plasma levels [1]: 1300 ng/mL | percent reduction of MCA-induced neoplastic transformation ([2]; 4-week treatment): complete suppression of the transformed phenotype | percent reduction of MCA-induced neoplastic transformation ([2]; 4-week treatment, listed as Non-esterified, free astaxanthin): 100% | numbers of MCA-induced transformed foci ([2]; 3×10^-6 M, 1×10^-6 M and 3×10^-7 M, 4-week treatment, vs MCA + THF control): concentration-dependent decrease | potency as inhibitor of transformation compared with previously tested carotenoids ([2]; comparison with data of Bertram, 1991 (1×10^-5 M)): far more potent inhibitor of transformation than either β-carotene or canthaxanthin | EC50 [3]: 0.2 µM | stability of the carotenoid cation radical (car.+) [4]: stable | time after which no 3car (carotenoid triplet) is left ([4]; acetonitrile, sensitizer NN): 50 μs | inhibition at 100 µM [5]: 28%

C/C(=C\c1ccc(C(=O)O)cc1)c1ccc2c(c1)C(C)(C)CCC2(C)C [TTNPB, p-(E)-2-(5,6,7,8-tetrahydro-5,5,8,8-tetramethyl-2-napthyl) propenyl benzoic acid, reference compound]
assembly of immunoreactive Cx43 into plaques [6]: exhibited assembly of immunoreactive Cx43 into plaques | induction of connexin 43 expression [7]: effective at inducing connexin 43 expression
